Key:
[1] = target: T1, CXCR4 (Homo sapiens, UniProt P61073); test: β-Arrestin-2 recruitment in Tango CXCR4-bla U2OS cells; type: cell-based; settings: antagonist at 1 μM
[2] = target: T1, CXCR4; type: cell-based; settings: log value

T1 sequence (P61073 whole entry): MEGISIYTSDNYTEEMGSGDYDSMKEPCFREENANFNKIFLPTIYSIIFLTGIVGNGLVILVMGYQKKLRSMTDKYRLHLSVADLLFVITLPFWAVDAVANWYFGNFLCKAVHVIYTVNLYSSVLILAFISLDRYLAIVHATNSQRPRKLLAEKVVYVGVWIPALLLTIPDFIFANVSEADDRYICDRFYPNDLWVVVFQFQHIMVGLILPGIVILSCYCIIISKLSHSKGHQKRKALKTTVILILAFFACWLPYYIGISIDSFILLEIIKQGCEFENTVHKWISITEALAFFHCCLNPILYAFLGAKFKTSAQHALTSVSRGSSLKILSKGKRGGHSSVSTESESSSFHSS

Row | Molecule | effect on CXCL12 β-arrestin response [1] | inhibition of forskolin-stimulated cAMP production log IC50 [2] [M]
1 | c1cc(CN2CCCNCCNCCCNCC2)ccc1CN1CCCNCCNCCCNCC1 [AMD3100] | abolishes CXCL12 β-arrestin response | 
2 | CXCL12: C-X-C Motif Chemokine Ligand 12, chemokine that binds CXCR4; endogenous ligand |  | −8.9 ± 0.1
